Measurements reported in patent US20100197789A1, “ANTI-OBESITY AGENT AND USE THEREOF” (National University Corporation Nagoya University, priority 2006, published 2010).

Experiments:
Assay type in all cases: in vivo, mouse
db/db mice [1] = assay: Blood glucose level, HbA1c and plasma hormone concentrations after 5-week administration, db/db mice; conditions: 1.1 and 2.7 mg/dl in drinking water
Method: 5 week-old male C57BL/KsJ-db/db mice (db/db mice: body weight 19 to 25 g, Japan SLC, Inc.) were purchased and individually fed in tip cages. For the db/db mice, normal pellet diet (CE-2) was administered under free water intake and free food intake. A body weight and a food intake amount over 24 hours were measured every day from the start of feeding. On day 3 after the start of feeding, blood was taken from an orbit after 6 hour-fasting and a blood glucose level and a blood insulin concentration were measured. The db/db mice were divided into three groups (10 mice per each group) so that a body weight, a 24 hour-food intake amount, a blood glucose level, and a blood insulin concentration were equal, and defined to be a control group, a low concentration baclofen treated group, and a high concentration baclofen treated group. After division into the groups, from day 5 after the start of feeding, (±)-baclofen was dissolved in drinking water and 5 week-continuous oral administration to the baclofen treated groups was started. (±)-baclofen was dissolved in drinking water at a concentration of 1.1 mg/dl in the low concentration treated group and at a concentration of 2.7 mg/dl in the high concentration treated group. A food intake amount and a body weight were measured over time during the period of 5 week-administration of (±)-baclofen, blood was taken after the end of the 5-week administration, and the db/db mice were sacrificed by cervical luxation. Brains, epididymal white adipose tissues, subcutaneous white adipose tissues and brown adipose tissues were surgically removed. The brains and brown adipose tissues were frozen in dry ice and liquid nitrogen immediately after the removal and then preserved at −80° C. The epididymal white adipose tissues and subcutaneous white adipose tissues were measured in weights, and then fixed in 4% formaldehyde and preserved at 4° C.
(§1) The blood glucose level was measured by a glucose analyzer Antisense (HORIBA, Ltd.) promptly after taking blood from an orbit. HbA1c was measured by a glycohemoglobin analyzer HLC-723 GHbV (manufactured by TOSOH Corporation) after preserving blood at −80° C.
(§2) After taking blood from an orbit by using a hematocrit tube coated with heparin, blood was centrifuged at 3500 rpm at 4° C. for 15 minutes, and plasma was preserved at −80° C. The plasma concentrations of insulin, leptin and adiponectin were measured by the ELISA method (levis insulin kit (mouse): Shibayagi Co., Ltd., Morinaga Leptin assay kit: Morinaga Institute of Biological Science, Inc., Mouse/rat adiponectin ELISA kit: OTSUKA Pharmaceutical Co., Ltd.).

db/db mice [2] = assay: Rectal temperature, oxygen consumption and motor activity, db/db mice
Method: 5 week-old male C57BL/KsJ-db/db mice (db/db mice: body weight 19 to 25 g, Japan SLC, Inc.) were purchased and individually fed in tip cages. For the db/db mice, normal pellet diet (CE-2) was administered under free water intake and free food intake. A body weight and a food intake amount over 24 hours were measured everyday from the start of feeding. On day 3 after the start of feeding, blood was taken from an orbit after 6 hour-fasting and a blood glucose level and a blood insulin concentration were measured. The db/db mice were divided into three groups (10 mice per each group) so that a body weight, a 24 hour-food intake amount, a blood glucose level, and a blood insulin concentration were equal, and defined to be a control group, an R-baclofen treated group, and an S-baclofen treated group. […] After division into the groups, from day 5 after the start of feeding, R-baclofen and S-baclofen were dissolved in drinking water and 5 week-continuous oral administration was started. Both of R-baclofen and S-baclofen were dissolved in drinking water at a concentration of 1.1 mg/dl used in the low concentration treated group in the experiment of baclofen racemic mixture administration. A food intake amount and a body weight were measured over time, and a rectal temperature was measured 5 weeks after the start of the administration. Blood was taken after the 5-week administration of baclofen, and the db/db mice were sacrificed by cervical luxation.
R-baclofen and S-baclofen were administered to db/db/mice and (±)-baclofen was administered to db/^+m mice respectively for 5 weeks, and rectal temperatures were then continuously measured for 3 days at 20 o'clock immediately before the dark period when feed intake was started in the mice. The method of measuring rectal temperatures was as follows. That is, the rectal temperatures were measured by using a digital thermistor (manufactured by NATSUME SEISAKUSHO CO., LTD.).
(±)-baclofen was orally administered to db/db mice and DIO mice for 5 weeks and rectal temperatures were measured 5 weeks after the start of the administration, and oxygen consumptions and motor activity were measured by using a small animal metabolism measuring system (model MK-5000: Muromachi Kikai Co., Ltd.).

DIO mice [3] = assay: Fasting blood glucose, HbA1c, blood insulin, plasma leptin and adiponectin after 5-week administration, DIO mice
Method: as §1, §2
(±)-baclofen (5 mg/kg/day), SKF97541 (0.3 mg/kg/day) or 3-APPA (5 mg/kg/day) was orally administered to DIO mice for 5 weeks according to the above described method, and then blood was taken from an orbit after 6 hour-fasting and a blood glucose level, an HbA1c value and a blood insulin concentration were measured.
(§3) (±)-baclofen (5 mg/kg/day) was orally administered to DIO mice for 5 weeks according to the above described method, and then, blood was taken from an orbit after 6 hour-fasting, and a plasma leptin concentration and a plasma adiponectin concentration were measured. The DIO mice were sacrificed by cervical luxation after the end of the 5-week administration, and then epididymal white adipose tissues and subcutaneous white adipose tissues were surgically removed, and after measuring the weights, they were fixed in 4% formaldehyde. The epididymal white adipose tissues were cut out to prepare a section with a thickness of 8 μm and subjected to Hematoxylin-Eosin stain (H-E stain) and a form (size) of a fat cell was examined by using an image analysis system, Neurolucida (MicroBrightField Japan, Inc.).

DIO mice [4] = assay: White adipose tissue weights and fat cell size, DIO mice; conditions: (±)-baclofen 5 mg/kg/day oral 5 weeks
Method: as §3

[5] = 6 hour-fasting after 5 weeks oral, (±)-baclofen 5, SKF97541 0.3, 3-APPA 5 mg/kg/day, vs control
[6] = (±)-baclofen 5 mg/kg/day oral 5 weeks, 6 hour-fasting

Compound: NCC(CC(=O)O)c1ccc(Cl)cc1 (racemic) [(±)-baclofen, (RS)-4-amino-3-(4-chlorophenyl)butanoic acid]
- blood adiponectin concentration (db/db mice [1]; after 5 week-administration): Significant increases
- blood leptin concentration (db/db mice [1]; after 5 week-administration): Significant increases
- fasting blood insulin level (db/db mice [1]; after 5 week-administration): No change
- HbA1c value (db/db mice [1]; after administration for 5 weeks): Significant decreases
- fasting blood glucose level (db/db mice [1]; fasting for 6 hours, after 5 week-administration): significant suppression
- oxygen consumption (db/db mice [2]; (±)-baclofen oral 5 weeks): significantly increased
- body temperature (rectal) (db/db mice [2]; (±)-baclofen oral, 5 weeks after start of administration): significantly raised
- fasting blood glucose level (DIO mice [3]; [5]): significant decreases
- fasting blood insulin concentration (DIO mice [3]; [5]): significant decreases
- plasma adiponectin concentration (DIO mice [3]; [6]): significantly increased
- plasma leptin concentration (DIO mice [3]; [6]): significantly decreased
- HbA1c value (DIO mice [3]; after 5 weeks oral, (±)-baclofen 5, SKF97541 0.3, 3-APPA 5 mg/kg/day, vs control): significant decreases
- weight of epididymal white adipose tissues (DIO mice [4]): significantly decreased
- weight of subcutaneous white adipose tissues (DIO mice [4]): significantly decreased
- size of a fat cell in the epididymal white adipose tissues (DIO mice [4]; H-E stain): decreased
